Laboratory results published in patent US20250017964A1, “ENGINEERING OR INDUCING PDGF AND/OR PDGFR SIGNALING TO ENHANCE NK CELL THERAPY” (City of Hope, priority 2021, published 2025).

Tested on: NK cells
Assay: Annexin V and Ki67 staining of NK cells in vitro
Assay type: cell-based, human
Details: PDGF-D 50 ng/ml 48 h without IL-15
Description: FIGS. 4A-4J. PDGFRβ promotes IL-15-mediated NK cell survival in vitro and in vivo. (A) 5×10^5 sorted PDGFRβ^+ (Pos) and PDGFRβ^− (Neg) NK cells were cultured in vitro for 7 days in the presence of IL-15 (10 ng/ml). The cells were counted via trypan blue exclusion assay on days 3, 5, and 7 (n=5). (B and C) On day 7, Ki67 levels in PDGFRβ^+ and PDGFRβ^− NK cells were determined by flow cytometry (n=5). (D and E) Annexin V levels in PDGFRβ^+ and PDGFRβ^− NK cells on day 7 were determined by flow cytometry (n=5). (H-J) 1×10^7 sorted PDGFRβ^+ or PDGFRβ^− IL-15-transduced NK cells were injected into NOD/SCID/IL-2rg (NSG) mice. Blood samples were collected for analysis at the indicated time after adoptive transfer. Data shown are representative dot plots on day 9 after adoptive transfer (H), percentages (I), and absolute numbers (J) of PDGFRβ^+ and PDGFRβ^− NK cells on days 3, 6, and 9 after adoptive transfer (n=5). Data represent three independent experiments. […]
FIGS. 6A-6M. […] Cells were counted on days 3, 5, and 7 (n=3). […] Cells were counted on days 3, 5, and 7 (n=3). […] The cells were counted by trypan exclusion assay on days 3, 5, and 7 (n=3). […] Cells were counted by trypan exclusion assay on days 3, 5, and 7 (n=3). […] Cells were counted by trypan exclusion assay on days 3, 5, and 7 (n=3). […] Cell apoptosis and proliferation were analyzed by annexin V staining (J) and Ki-67 staining (K), respectively. […]

Q: What does the source list for “PDGF-D: recombinant human PDGF-DD (1159-SB-025), R&D Systems”?
A: apoptosis of PDGFRβ^+ NK cells (annexin V) (IL-15-pretreated sorted cells): inhibited apoptosis; NK cell proliferation (Ki67): did not affect NK cell proliferation
